US12281057B2 (VERTEX PHARMACEUTICALS INCORPORATED, priority 2017, dated 2025)

Key:
[1] = target: T1, truncated form of human NaV 1.8 with full channel activity (Homo sapiens, UniProt Q9Y5Y9); experiment: E-VIPR Assay Method B for detecting and measuring Nav inhibition (HEK cells, membrane potential FRET dyes, electrical stimulation); assay type: cell-based; settings: HEK cells expressing human NaV 1.8, Table 20B, read-out: Nav 1.8 MedChem Optical Assay EVIPR Assay Method B HS IC50
Text: [formula] where X is the ratio response of the test compound. […] E-VIPR Assay Method B for Detecting and Measuring Nav Inhibition Properties Sodium ion channels are voltage-dependent proteins that can be activated by inducing membrane voltage changes by applying electric fields. The electrical stimulation instrument and methods of use, referred to as E-VIPR, are described in International Publication No. WO 2002/008748 A3 and C.-J. Huang et al. Characterization of voltage-gated sodium channel blockers by electrical stimulation and fluorescence detection of membrane potential, 24 Nature Biotech. 439-46 (2006), both of which are incorporated by reference in their entirety. The instrument comprises a microtiter plate handler, an optical system for exciting the coumarin dye while simultaneously recording the coumarin and oxonol emissions, a waveform generator, a current- or voltage-controlled amplifier, and parallel electrode pairs that are inserted into assay plate wells. Under integrated computer control, this instrument passes user-programmed electrical stimulus protocols to cells within the wells of the microtiter plate. […] Sigma #F4135), 1% NEAA (Non-Essential Amino Acids, Life Tech #11140), 1% HEPES (Life Tech #15630), 1% Pen-Strep (Penicillin-Streptomycin; […] Cells were expanded in vented cap flasks, with 95% humidity and 5% CO2. Reagents and Stock Solutions: • 100 mg/mL Pluronic F-127 (Sigma #P2443), in dry DMSO • Compound Plates: […] 5% KIR 2.1 Bacmam virus (produced in-house), prepared as described in Section 3.3 of J. A. Fornwald et al., Gene Expression in Mammalian Cells Using BacMam, a Modified Baculovirus System, 1350 Methods in Molecular Biology 95-116 (2016), the entire contents of which are incorporated by reference. • 5 mM DiSBAC6(3) (a voltage sensitive oxonol acceptor) (Aurora #00-100-010) in dry DMSO • 5 mM CC2-DMPE (a membrane-bound coumarin phospholipid FRET donor) (Aurora #00-100-008) in dry DMSO • 89 mM VABSC-1 in H2O. […] The solution was made by adding 10% Pluronic F127 stock equal to combined volumes of CC2-DMPE and DiSBAC6(3). The order of preparation was first mix Pluronic and CC2-DMPE, then add DiSBAC6(3), then while vortexing add Bath1/β-Cyclodextrin. […] Assay Protocol: […] Final DMSO concentration for all wells in the assay was 0.625% (0.75% DMSO was supplemented to the Compound Loading Buffer for a final DMSO concentration of 0.625%). 2) Hexyl Dye Solution was prepared. 3) Cell plates were prepared. On the day of the assay, the media was aspirated, and the cells were washed three times with 80 μL of Bath-1 buffer, maintaining 25 μL residual volume in each well. 4) 25 μL per well of Hexyl Dye Solution was dispensed into the cell plates. The cells were incubated for 20 minutes at room temp or ambient conditions in darkness. 5) 80 μL per well of Compound Loading Buffer was dispensed into compound plates. […] The mixture was incubated for 30 minutes at room temp/ambient conditions. […] A pre-stimulus recording was performed for 0.5 seconds to obtain the un-stimulated intensities baseline. The stimulatory waveform was followed by 0.5 seconds of post-stimulation recording to examine the relaxation to the resting state. Data Analysis: Data were analyzed and reported as normalized ratios of emission intensities measured in the 460 nm and 580 nm channels. The response as a function of time was reported as the ratios obtained using the following formula: [formula] The data were further reduced by calculating the initial (Ri) and final (Rf) ratios. These were the average ratio values during part or all of the pre-stimulation period and during sample points during the stimulation period. The fluorescence ratio (Rf/Ri) was then calculated and reported as a function of time. Control responses were obtained by performing assays in the presence of the positive control, and in the absence of pharmacological agents (DMSO vehicle negative control). Responses to the negative (N) and positive (P) controls were calculated as above. […]

[2] = target: T1, truncated form of human NaV 1.8 with full channel activity; experiment: E-VIPR Assay Method A for detecting and measuring Nav inhibition (HEK cells, membrane potential FRET dyes, electrical stimulation); assay type: cell-based; settings: HEK cells expressing human NaV 1.8, HS (human serum) in compound loading buffer, 11 point dose response, top dose 3 μM
How it was run: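 Read-out: FRET membrane-potential dye ratio (460/580 nm) before and during E-VIPR field stimulation at 10 Hz for 10 s, expressed as % activity between DMSO and positive controls. Cells: HEK with truncated human NaV1.8; compound preincubated 30 min at room temp, final DMSO 0.625%.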

[3] = Table 20A, read-out: Nav 1.8 MedChem Optical Assay EVIPR Assay Method A HS IC50
[4] = Table 20, read-out: Nav 1.8 MedChem Optical Assay EVIPR Assay Method A HS IC50

T1 sequence (Q9Y5Y9 126-1722 limits assumed): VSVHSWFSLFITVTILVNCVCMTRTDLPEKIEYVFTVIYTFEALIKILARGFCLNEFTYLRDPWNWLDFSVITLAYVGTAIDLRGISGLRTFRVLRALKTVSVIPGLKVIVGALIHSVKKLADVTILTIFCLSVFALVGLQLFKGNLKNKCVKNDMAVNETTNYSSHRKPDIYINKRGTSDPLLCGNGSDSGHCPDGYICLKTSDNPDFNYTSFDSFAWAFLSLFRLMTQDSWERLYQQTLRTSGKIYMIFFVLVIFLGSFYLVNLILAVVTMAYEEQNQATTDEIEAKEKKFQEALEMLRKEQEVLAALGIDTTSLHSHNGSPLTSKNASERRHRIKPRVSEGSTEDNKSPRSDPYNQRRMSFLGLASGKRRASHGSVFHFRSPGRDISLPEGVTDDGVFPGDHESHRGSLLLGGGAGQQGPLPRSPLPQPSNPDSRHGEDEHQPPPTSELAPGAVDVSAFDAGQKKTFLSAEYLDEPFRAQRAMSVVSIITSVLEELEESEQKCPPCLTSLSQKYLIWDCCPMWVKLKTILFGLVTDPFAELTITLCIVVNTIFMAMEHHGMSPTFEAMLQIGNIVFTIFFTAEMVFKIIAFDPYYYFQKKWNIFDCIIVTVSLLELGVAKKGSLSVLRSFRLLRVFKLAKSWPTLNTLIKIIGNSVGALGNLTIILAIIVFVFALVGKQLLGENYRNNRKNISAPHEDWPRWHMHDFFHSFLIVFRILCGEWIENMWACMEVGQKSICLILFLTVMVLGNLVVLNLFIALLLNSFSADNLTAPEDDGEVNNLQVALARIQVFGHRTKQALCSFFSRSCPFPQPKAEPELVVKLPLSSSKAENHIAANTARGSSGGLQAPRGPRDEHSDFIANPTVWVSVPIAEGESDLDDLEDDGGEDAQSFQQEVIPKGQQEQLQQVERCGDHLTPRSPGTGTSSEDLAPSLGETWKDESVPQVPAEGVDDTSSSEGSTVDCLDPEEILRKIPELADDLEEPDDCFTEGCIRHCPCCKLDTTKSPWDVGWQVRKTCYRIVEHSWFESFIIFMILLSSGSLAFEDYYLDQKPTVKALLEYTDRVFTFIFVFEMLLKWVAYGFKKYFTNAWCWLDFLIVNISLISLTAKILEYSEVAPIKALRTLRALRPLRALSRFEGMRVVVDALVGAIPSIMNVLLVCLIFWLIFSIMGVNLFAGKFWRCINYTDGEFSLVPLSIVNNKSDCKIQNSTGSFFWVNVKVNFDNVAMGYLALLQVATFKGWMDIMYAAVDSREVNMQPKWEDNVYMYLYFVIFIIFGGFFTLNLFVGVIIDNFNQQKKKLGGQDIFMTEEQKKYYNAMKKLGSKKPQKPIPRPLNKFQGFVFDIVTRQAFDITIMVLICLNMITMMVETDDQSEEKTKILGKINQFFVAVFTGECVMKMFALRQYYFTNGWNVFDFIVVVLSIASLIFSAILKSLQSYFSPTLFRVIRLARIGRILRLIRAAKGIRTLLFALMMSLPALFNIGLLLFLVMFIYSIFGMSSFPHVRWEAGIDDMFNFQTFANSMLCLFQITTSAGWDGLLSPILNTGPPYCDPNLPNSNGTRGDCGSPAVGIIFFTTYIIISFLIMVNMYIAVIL

IC50 [1]	IC50 [2, 3]	SMILES	other results
> 25000 nM	–	CC(C)(C)c1ccc(C(=O)Nc2cc(C(N)=O)ccn2)c(Oc2ccc(C(F)(F)F)nc2)c1 [Compound 262]	–
36 nM	–	COc1ccc(Oc2cc(C(F)(F)C(F)(F)F)ccc2C(=O)Nc2cccc(C(N)=O)c2)c(OC)c1 [Compound 252, N-(3-carbamoylphenyl)-2-(2,4-dimethoxyphenoxy)-4-(1,1,2,2,2-pentafluoroethyl)benzamide]	–
56 nM	–	COc1ccc(Oc2ccc(C(F)(F)F)cc2C(=O)Nc2cccc(C(N)=O)c2)c(Cl)c1 [Compound 279, N-(3-carbamoylphenyl)-2-(2-chloro-4-methoxyphenoxy)-5-(trifluoromethyl)benzamide]	–
165 nM	–	Cc1cccc(Oc2ccc(F)cc2Cl)c1C(=O)Nc1cccc(C(N)=O)c1 [Compound 275, N-(3-carbamoylphenyl)-2-(2-chloro-4-fluoro-phenoxy)-6-methyl-benzamide]	–
166 nM	–	NC(=O)c1cccc(NC(=O)c2c(Oc3ccc(F)cc3Cl)cccc2C(F)(F)F)c1 [Compound 260, N-(3-carbamoylphenyl)-2-(2-chloro-4-fluorophenoxy)-6-(trifluoromethyl)benzamide]	–
9 nM	–	COc1ccc(Oc2cc(Cl)c(Cl)cc2C(=O)Nc2cccc(C(N)=O)c2)c(OC)c1 [Compound 269, N-(3-carbamoylphenyl)-4,5-dichloro-2-(2,4-dimethoxyphenoxy)benzamide]	–
85 nM	–	Cc1cc(F)ccc1Oc1cccc(C(F)(F)F)c1C(=O)Nc1cccc(C(N)=O)c1 [Compound 258, N-(3-carbamoylphenyl)-2-(4-fluoro-2-methylphenoxy)-6-(trifluoromethyl)benzamide]	–
36 nM	–	NC(=O)c1cccc(NC(=O)c2cc(C(F)(F)F)ccc2Oc2ccc(F)cc2Cl)c1 [Compound 289, N-(3-carbamoylphenyl)-2-(2-chloro-4-fluorophenoxy)-5-(trifluoromethyl)benzamide]	–
61 nM	–	NC(=O)c1cccc(NC(=O)c2ccc(C(F)(F)F)cc2Oc2ccc(F)cc2)c1 [Compound 300, N-(3-carbamoylphenyl)-2-[4-fluorophenoxy]-4-(trifluoromethyl)benzamide]	–
20 nM	–	COc1ccc(Oc2cc(Cl)c(Cl)cc2C(=O)Nc2cccc(C(N)=O)c2)cc1F [Compound 271, N-(3-carbamoylphenyl)-4,5-dichloro-2-(3-fluoro-4-methoxy-phenoxy)benzamide]	–
39 nM	–	COc1ccc(Oc2ccc(C(F)(F)F)cc2C(=O)Nc2cccc(C(N)=O)c2)c(OC)c1 [Compound 281, N-(3-carbamoylphenyl)-2-(2,4-dimethoxyphenoxy)-5-(trifluoromethyl)benzamide]	–
250 nM	–	NC(=O)c1cccc(NC(=O)c2cc(C(F)(F)F)ccc2Oc2ccccc2)c1 [Compound 277, N-(3-carbamoylphenyl)-2-phenoxy-5-(trifluoromethyl)benzamide]	–
1200 nM	–	CC(C)(C)c1ccc(C(=O)Nc2cncc(C(N)=O)c2)c(Oc2ccc(C(F)(F)F)nc2)c1 [Compound 261, 5-(4-(tert-butyl)-2-((6-(trifluoromethyl)pyridin-3-yl)oxy)benzamido)nicotinamide]	–

The remaining lines, values behind:

SMILES	IC50 [1]	IC50 [2, 3]	other results
COc1cc(F)ccc1Oc1cc(C(F)(F)C(F)(F)F)ccc1C(=O)Nc1cccc(C(N)=O)c1 [Compound 248, N-(3-carbamoylphenyl)-2-(4-fluoro-2-methoxyphenoxy)-4-(1,1,2,2,2-pentafluoroethyl)benzamide]	11 nM	–	–
COc1cc(Cl)ccc1Oc1cc(C(F)(F)C(F)(F)F)ccc1C(=O)Nc1cccc(C(N)=O)c1 [Compound 247, N-(3-carbamoylphenyl)-2-(4-chloro-2-methoxyphenoxy)-4-(1,1,2,2,2-pentafluoroethyl)benzamide]	33 nM	–	–
[2H]C([2H])([2H])Oc1cc(OC(F)(F)F)ccc1Oc1ccc(C(F)(F)F)c(F)c1C(=O)Nc1ccc(C(N)=O)cn1 [Compound 212, 6-[[2-Fluoro-6-[2-(trideuteriomethoxy)-4-(trifluoromethoxy)phenoxy]-3-(trifluoromethyl)benzoyl]amino]pyridine-3-carboxamide]	–	54 nM	–
COc1cc(OC(F)(F)F)ccc1Oc1cc(C(F)(F)F)c(F)cc1C(=O)Nc1ccnc(C(N)=O)c1 [Compound 75, 4-[[5-Fluoro-2-[2-methoxy-4-(trifluoromethoxy)phenoxy]-4-(trifluoromethyl)benzoyl]amino]pyridine-2-carboxamide]	–	26 nM	–
COc1cc(F)ccc1-c1cc(C(F)(F)F)ccc1C(=O)Nc1ccc(F)c(C(N)=O)c1 [Compound 162, N-(3-carbamoyl-4-fluoro-phenyl)-2-(4-fluoro-2-methoxy-phenyl)-4-(trifluoromethyl)benzamide]	–	170 nM	–
COc1c(Oc2ccc(C(F)(F)F)c(F)c2C(=O)Nc2ccc(F)c(C(N)=O)c2)ccc(OC(F)(F)F)c1F [Compound 219, N-(3-Carbamoyl-4-fluoro-phenyl)-2-fluoro-6-[3-fluoro-2-methoxy-4-(trifluoromethoxy)phenoxy]-3-(trifluoromethyl)benzamide]	–	0.9 nM	–
COc1cc(OC(F)(F)F)ccc1Oc1cnc(C(F)(F)F)c(OC)c1C(=O)Nc1cc(C(N)=O)ncc1C [Compound 144, N-(2-Carbamoyl-5-methyl-4-pyridyl)-3-methoxy-5-[2-methoxy-4-(trifluoromethoxy)phenoxy]-2-(trifluoromethyl)pyridine-4-carboxamide]	–	23 nM	–
[2H]C([2H])([2H])Oc1cc(OC(F)(F)F)ccc1Oc1cc(OC(F)(F)F)cc(F)c1C(=O)Nc1ccnc(C(N)=O)c1 [Compound 172, 4-[[2-Fluoro-6-[2-(trideuteriomethoxy)-4-(trifluoromethoxy)phenoxy]-4-(trifluoromethoxy)benzoyl]amino]pyridine-2-carboxamide]	–	12 nM	–
COc1cc(OC(F)(F)F)ccc1Oc1cc(F)c(F)c(F)c1C(=O)Nc1ccc(F)c(C(N)=O)c1 [Compound 11, N-(3-carbamoyl-4-fluoro-phenyl)-2,3,4-trifluoro-6-[2-methoxy-4-(trifluoromethoxy)phenoxy]benzamide]	–	–	IC50 [2, 4]: 4 nM
COc1cc(F)ccc1Oc1cc(C(F)(F)F)cc(C(F)(F)F)c1C(=O)Nc1ccc(C(N)=O)nc1 [Compound 159, 5-[[2-(4-Fluoro-2-methoxy-phenoxy)-4,6-bis(trifluoromethyl)benzoyl]amino]pyridine-2-carboxamide]	–	1700 nM	–
COc1cc(OC(F)(F)F)ccc1Oc1ccc(C(F)(F)F)c(F)c1C(=O)Nc1ccc(F)c(C(N)=O)c1 [Compound 2, N-(3-carbamoyl-4-fluoro-phenyl)-2-fluoro-6-[2-methoxy-4-(trifluoromethoxy)phenoxy]-3-(trifluoromethyl)benzamide]	–	–	IC50 [2, 4]: 1 nM
NC(=O)c1cc(NC(=O)c2c(Oc3ccc(OC(F)(F)F)c(Cl)c3)ccc(C(F)(F)F)c2F)ccn1 [Compound 53]	–	17 nM	–
